Laboratory results as given in patent US20200187499A1, “SUBSTITUTED BENZYL-4-AMINOPICOLINIC ESTERS AND PYRIMIDINO-4-CARBOXYLIC ESTERS, METHODS FOR THE PRODUCTION THEREOF, AND USE THEREOF AS HERBICIDES AND PLANT GROWTH REGULATORS” (Bayer CropScience Aktiengesellschaft, priority 2017, published 2020).

What was measured:
Type in all cases: in vivo
POLCO [1] = assay: Post-emergence herbicidal action; conditions: Table 5, post-emergence (PO), 320 g/ha, assessed after about 3 weeks
Description: (§1) Seeds of monocotyledonous and dicotyledonous weed and crop plants are laid out in sandy loam soil in wood-fiber pots, covered with soil and cultivated in a greenhouse under good growth conditions. 2 to 3 weeks after sowing, the test plants are treated at the one-leaf stage. The compounds of the invention, formulated in the form of wettable powders (WP) or as emulsion concentrates (EC), are then sprayed onto the green parts of the plants in the form of an aqueous suspension or emulsion at a water application rate equating to 600 to 800 l/ha, with addition of 0.2% wetting agent. After the test plants have been left to stand in the greenhouse under optimal growth conditions for about 3 weeks, the action of the preparations is assessed visually in comparison to untreated controls (herbicidal action in percent (%): 100% activity=the plants have died, 0% activity=like control plants). […] At the same time, inventive compounds leave Gramineae crops such as barley, wheat, rye, millet/sorghum, corn or rice virtually undamaged when applied post-emergence, even at high active ingredient dosages. In addition, some substances are also harmless to dicotyledonous crops such as soya, cotton, oilseed rape, sugar beet or potatoes. Some of the compounds according to the invention have high selectivity and are therefore suitable for controlling unwanted vegetation in agricultural crops by the post-emergence method. The tables below illustrate, in an exemplary manner, the post-emergence herbicidal action of the compounds according to the invention, the herbicidal activity being stated in percent.

VIOTR [2] = assay: Post-emergence herbicidal action; conditions: Table 5, post-emergence (PO), 320 g/ha, assessed after about 3 weeks
Description: as §1

AMARE [3] = assay: Post-emergence herbicidal action; conditions: 320 g/ha, assessed after about 3 weeks
Description: as §1

ECHCG [4] = assay: Post-emergence herbicidal action; conditions: Table 5, post-emergence (PO), 320 g/ha, assessed after about 3 weeks
Description: as §1

SETVI [5] = assay: Post-emergence herbicidal action; conditions: 320 g/ha, assessed after about 3 weeks
Description: as §1

ABUTH [6] = assay: Post-emergence herbicidal action; conditions: 320 g/ha, assessed after about 3 weeks
Description: as §1

STEME = assay: Post-emergence herbicidal action; conditions: 320 g/ha, assessed after about 3 weeks
Description: as §1

PHBPU = assay: Post-emergence herbicidal action; conditions: Table 5, post-emergence (PO), 320 g/ha, assessed after about 3 weeks
Description: as §1

ALOMY = assay: Pre-emergence herbicidal action; conditions: 320 g/ha, scored after 3 weeks
Text: (§2) Seeds of monocotyledonous and dicotyledonous weed plants and crop plants are laid out in sandy loam soil in wood-fiber pots and covered with soil. The compounds of the invention, formulated in the form of wettable powders (WP) or as emulsion concentrates (EC), are then applied to the surface of the covering soil in the form of an aqueous suspension or emulsion at a water application rate equating to 600 to 800 I/ha, with addition of 0.2% wetting agent. After the treatment, the pots are placed in a greenhouse and kept under good growth conditions for the trial plants. The damage to the test plants is scored visually after a test period of 3 weeks by comparison with untreated controls (herbicidal activity in percent (%): 100% activity=the plants have died, 0% activity=like control plants).
(§3) At the same time, inventive compounds leave Gramineae crops such as barley, wheat, rye, millet/sorghum, corn or rice virtually undamaged when applied pre-emergence, even at high active ingredient dosages. In addition, some substances are also harmless to dicotyledonous crops such as soya, cotton, oilseed rape, sugar beet or potatoes. […] The tables below illustrate, in an exemplary manner, the pre-emergence herbicidal action of the compounds according to the invention, the herbicidal activity being stated in percent.

AMARE [7] = assay: Pre-emergence herbicidal action; conditions: 320 g/ha, scored after 3 weeks
Text: as §2, §3

ECHCG [8] = assay: Pre-emergence herbicidal action; conditions: 320 g/ha, scored after 3 weeks
Text: as §2, §3

SETVI [9] = assay: Pre-emergence herbicidal action; conditions: 320 g/ha, scored after 3 weeks
Text: as §2, §3

ABUTH [10] = assay: Pre-emergence herbicidal action; conditions: 320 g/ha, scored after 3 weeks
Text: as §2, §3

POLCO [11] = assay: Pre-emergence herbicidal action; conditions: Table 2, pre-emergence (PE), 320 g/ha, scored after 3 weeks
Text: as §2, §3

VIOTR [12] = assay: Pre-emergence herbicidal action; conditions: Table 2, pre-emergence (PE), 320 g/ha, scored after 3 weeks
Text: as §2, §3

| Compound | Herbicidal action against POLCO (POLCO [1]) [%] | Herbicidal action against VIOTR (VIOTR [2]) [%] | Herbicidal action against AMARE (AMARE [3]; Table 5, post-emergence (PO)) [%] | Herbicidal action against ECHCG (ECHCG [4]) [%] | Herbicidal action against SETVI (SETVI [5]; Table 5, post-emergence (PO)) [%] | Herbicidal action against ABUTH (ABUTH [6]; Table 5, post-emergence (PO)) [%] | Herbicidal action against STEME (STEME; Table 5, post-emergence (PO)) [%] | Herbicidal action against PHBPU (PHBPU) [%] | Herbicidal action against ALOMY (ALOMY; Table 3, pre-emergence (PE)) [%] | Herbicidal action against AMARE (AMARE [7]; Table 3, pre-emergence (PE)) [%] | Herbicidal action against ECHCG (ECHCG [8]; Table 3, pre-emergence (PE)) [%] | Herbicidal action against SETVI (SETVI [9]; Table 3, pre-emergence (PE)) [%] | Herbicidal action against ABUTH (ABUTH [10]; Table 3, pre-emergence (PE)) [%] | Herbicidal action against AMARE (AMARE [3]; Table 6, post-emergence (PO)) [%] | Herbicidal action against SETVI (SETVI [5]; Table 6, post-emergence (PO)) [%] | Herbicidal action against ABUTH (ABUTH [6]; Table 6, post-emergence (PO)) [%] | Herbicidal action against STEME (STEME; Table 6, post-emergence (PO)) [%] | Herbicidal action against ALOMY (ALOMY; Table 2, pre-emergence (PE)) [%] | Herbicidal action against POLCO (POLCO [11]) [%] | Herbicidal action against VIOTR (VIOTR [12]) [%] | also measured |
| --- | --- | --- | --- | --- | --- | --- | --- | --- | --- | --- | --- | --- | --- | --- | --- | --- | --- | --- | --- | --- | --- |
| Nc1c(F)c(-c2ccc3sccc3c2)nc(C(=O)OCc2ccc(F)cc2)c1Cl [Example I-29] | 90 | 50 | 100 | 90 | 80 | 80 | 80 | 40 | 80 | 100 | 80 | 70 | 70 | – | – | – | – | – | – | – | – |
| COc1c(F)ccc(COC(=O)c2nc(-c3ccc4sccc4c3)cc(N)c2Cl)c1F [Example I-22] | 90 | 80 | 100 | 90 | 100 | 100 | 100 | 80 | 50 | 100 | 90 | 90 | 20 | – | – | – | – | – | – | – | – |
| Nc1cc(-c2ccc3occc3c2)nc(C(=O)OCc2ccc(C(F)(F)F)cc2)c1Cl [Example I-36] | – | – | – | – | – | – | – | – | – | – | – | – | – | 100 | 80 | 100 | 100 | 50 | 90 | 0 | Herbicidal action against AMARE (AMARE [7]; Table 2, pre-emergence (PE)): 100%; Herbicidal action against ECHCG (ECHCG [8]; Table 2, pre-emergence (PE)): 90%; Herbicidal action against SETVI (SETVI [9]; Table 2, pre-emergence (PE)): 90%; Herbicidal action against ABUTH (ABUTH [10]; Table 2, pre-emergence (PE)): 90% |
| Nc1c(Cl)c(C(=O)OCc2cccc(C(F)(F)F)c2)nc(Cl)c1-c1ccc2sccc2c1 [Example I-21, 3-(trifluoromethyl)benzyl 4-amino-6-chloro-(1-benzothiophen-5-yl)-3-chloropyridine-2-carboxylate] | 40 | 80 | 100 | 90 | 90 | 90 | 90 | 80 | 40 | 60 | 100 | 80 | 50 | – | – | – | – | – | – | – | – |
| Nc1cc(-c2ccc3occc3c2)nc(C(=O)OCc2c(F)cc(F)cc2F)c1Cl [Example I-20] | – | – | – | – | – | – | – | – | – | – | – | – | – | 100 | 100 | 100 | 100 | 70 | 100 | 40 | Herbicidal action against AMARE (AMARE [7]; Table 2, pre-emergence (PE)): 100%; Herbicidal action against ECHCG (ECHCG [8]; Table 2, pre-emergence (PE)): 100%; Herbicidal action against SETVI (SETVI [9]; Table 2, pre-emergence (PE)): 100%; Herbicidal action against ABUTH (ABUTH [10]; Table 2, pre-emergence (PE)): 50% |
| COc1c(F)ccc(COC(=O)c2nc(-c3ccc4ccsc4c3)cc(N)c2Cl)c1F [Example I-08] | – | – | – | – | – | – | – | – | – | – | – | – | – | 100 | 70 | 100 | 100 | 60 | 100 | 20 | Herbicidal action against AMARE (AMARE [7]; Table 2, pre-emergence (PE)): 100%; Herbicidal action against ECHCG (ECHCG [8]; Table 2, pre-emergence (PE)): 100%; Herbicidal action against SETVI (SETVI [9]; Table 2, pre-emergence (PE)): 90%; Herbicidal action against ABUTH (ABUTH [10]; Table 2, pre-emergence (PE)): 0% |
